This is an account of results in patent US8232296B2, “Salt 628” (Astrazeneca AB, priority 2009, dated 2012).

Data set [1] can be described thus: Solubility of compound (I) tosylate in various dissolution media with time. The format is physicochemical. As to conditions: thermodynamic from solid, 37° C. From the text:
Therefore compound (I) tosylate is expected to improve the aqueous solubility of compound (I) for a sufficient period of time to allow enhanced absorption in man. Without wishing to be limited by theory, the enhanced solubility of compound (I) tosylate may arise from a combination of the inherent higher solubility of the compound (I) tosylate, and a continued high solubility when the compound (I) precipitates from solution as amorphous material, in aqueous media. The observed improved solubility may therefore reflect both the solubility of the amorphous material and the solubility of the compound (I) tosylate, which will be present in-vivo in varying ratios following oral administration of compound (I) tosylate as a result of the kinetic balance between dissolution and precipitation of compound (I). […] In Table 2, the columns marked “modification” refer to the form of the solid present in the dissolution medium at the relevant time point indicated. The data in Table 2 indicate that the solubility remains high for at least 3 hours, particularly at low pH, representative of the pH found in the stomach.
Solubility was determined in 0.1 M HCl at pH 1.0, 0.2 M phosphate buffer at pH 3, 0.2 M phosphate buffer at pH 5.0, 0.2 M phosphate buffer at pH 6.5 and 0.2 M phosphate buffer at pH 8.
Typically about 4 mg of test sample was added to a 1 ml Scantec glass tube. The experiment was started on addition of 800 μl of preheated test media using an automated Tecon robot system (Genesis Freedom 150). Incubation was at 37° C., in a thermoblock, shaken at 600 rpm. Samples were withdrawn after 1 hour, 3 hours and 24 h, triplicate samples for each media. The supernatant liquid was withdrawn from samples and filtered using a Whatman GF/B filter and diluted prior to analysis by LC (Agilent 1100 series with X Terra MSC18 column). The remaining solid in the sample tubes was characterised using XRPD.

Data set [2] is described as follows: Solid state stability study (LC and XRPD). The format is physicochemical. As for the experimental part:
The solid state stability of compound (I) tosylate Form A was studied under four sets of conditions: at 25° C./desiccated; at 25° C./60% relative humidity (RH); 40° C./75% RH and 60° C./75% RH. Samples were examined (LC and XRPD) after 4, 8 and 12 weeks and chemical and physical stability were evaluated. […] It was concluded that compound (I) tosylate Form A has excellent and advantageous chemical and physical stability in the solid state under pharmaceutically relevant storage conditions.

The nature of data set [3]: Solubility of salts of compound (I) after 1 hour in 0.1 M HCl (Zymark Multidose G3, UV 337 nm). As to conditions: after 1 hour in 900 ml of 0.1 M HCl, 75 rpm, 37° C.
Protocol: The solubility (mg/ml) shown in Table 1 was measured after 1 hour in 900 ml of 0.1 M HCl and at 75 rpm and 37° C. using a Zymark Multidose G3 system. Analysis was made by UV spectrophotometer with a detection wavelength of 337 nm.
Data set [4] can be described thus: Oral bioavailability study in the dog. The format is in vivo, Beagle dogs. As to conditions: Beagle, plasma. As for the experimental part:
Beagle dogs (three dogs for each formulation) were administered orally with Compound (I) tosylate form A (dose equivalent to 1.0 mg/kg compound (I) free base) in a gelatine capsule or an aqueous suspension of 0.8 mg/kg crystalline compound (I) free base suspended in water together with 1.2% w/w Avicel and 0.1% w/w Polysorbate 80.
Accordingly the bioavailability of compound (I) tosylate Form A was about 3 times higher than the free base.

Data set [5] is described as follows: Humidity sorption by gravimetrical vapour sorption (GVS). The format is physicochemical. As to conditions: at 80% relative humidity (RH). As for the experimental part:
As such, compound (I) tosylate Form A is right at the border between slightly hygroscopic and non hygroscopic, according to the criteria defined in the European Pharmacopoeia.
The gravimetric responses of test samples to changes in humidity were investigated using a SGA 100 (VTI Corporation) Gravimetrical Vapour Sorption (GVS) instrument with the following features:
Dry to 90% RH and back, in steps of, for example, 10% RH.
Equilibrium condition: <0.01 weight-% per 10 minutes (<0.001 weight-%/min)
Approximately 5 mg of the test sample was placed in the cup and evaluated.

Data set [6] in a line: Dissolution in 900 ml of 0.1 M HCl (pH 1), USP apparatus 2. As to conditions: 79 mg (corresponding to 60 mg free base) alone in a capsule; 900 ml 0.1 M HCl, 75 rpm, 37° C. The format is physicochemical. The method, then: […] The dissolution was measured in 900 ml of 0.1 M HCl (pH 1) and using a USP dissolution apparatus 2 (paddle) at 75 rpm and 37° C. in a fully automated system, Zymark Multidose G3.
The dissolution profile of tablet formulations A and B in Table 7 were determined in 900 ml of 0.1 M HCl (pH 1) and using a USP dissolution apparatus 2 (paddle) at 75 rpm and 37° C. in a fully automated system, Zymark Multidose G3.

In data set [7] the target is T1, Human Neutrophil Elastase (HNE) (Homo sapiens, UniProt P08246).
T1 construct: Human Neutrophil Elastase (HNE) purified from serum (Calbiochem art. 324681); purchased Calbiochem 324681; host or cells: purified from serum (so in the source); natural human source, not recombinant
T1 sequence (P08246 30-247 limits assumed): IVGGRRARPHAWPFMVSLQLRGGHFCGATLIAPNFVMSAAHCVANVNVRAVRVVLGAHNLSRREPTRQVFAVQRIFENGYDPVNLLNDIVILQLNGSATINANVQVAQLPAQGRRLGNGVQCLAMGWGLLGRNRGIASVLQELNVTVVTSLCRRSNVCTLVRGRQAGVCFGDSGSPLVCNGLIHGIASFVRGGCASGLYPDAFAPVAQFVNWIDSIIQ
In words: Human Neutrophil Elastase Quenched-FRET assay. The format is biochemical. As to conditions: free base dissolved in DMSO; n=26; read-out: IC50 for inhibition of human neutrophil elastase activity. The method, then:
The assay uses Human Neutrophil Elastase (HNE) purified from serum (Calbiochem art. 324681; Ref. Baugh, R. J. et al., 1976, Biochemistry. 15, 836-841). […] The protease substrate used was Elastase Substrate V Fluorogenic, MeOSuc-AAPV-AMC (Calbiochem art. 324740; Ref. Castillo, M. J. et al., 1979, Anal. Biochem. 99, 53-64). The substrate was stored in dimethyl sulfoxide (DMSO) at −20° C. The assay additions were as follows: Test compounds and controls were added to black 96-well flat-bottom plates (Greiner 655076), 1.0 μL in 100% DMSO, followed by 30 μL HNE in assay buffer with 0.01% Triton (trade mark) X-100 detergent. The assay buffer constitution was: 100 mM Tris(hydroxymethyl)aminomethane (TRIS) (pH 7.5) and 500 mM NaCl. The enzyme and the compounds were incubated at room temperature for 15 minutes. Then 30 μl substrate in assay buffer was added. The assay was incubated for 30 minutes at room temperature. The concentrations of HNE enzyme and substrate during the incubation were 1.7 nM and 100 μM, respectively. The assay was then stopped by adding 60 μl stop solution (140 mM acetic acid, 200 mM sodium monochloroacetate, 60 mM sodium acetate, pH 4.3). Fluorescence was measured on a Wallac 1420 Victor 2 instrument at settings: Excitation 380 nm, Emission 460 nm. IC50 values were determined using Xlfit curve fitting using model 205.

Counter-ions that a name gives are not always drawn. A value given as a limit tells only on which side of the number the result lay.

For `Cc1c(-c2ccnn2C)cc(C(=O)NCc2ccc(S(C)(=O)=O)cn2)c(=O)n1-c1cccc(C(F)(F)F)c1` [compound (I) tosylate Form A, 6-methyl-5-(1-methyl-1H-pyrazol-5-yl)-N-{[5-(methylsulfonyl)pyridin-2-yl]methyl}-2-oxo-1-[3-(trifluoromethyl)phenyl]-1,2-dihydropyridine-3-carboxamide 4-methylbenzenesulfonate], the solubility at 1 h in data set [1] (aqueous buffer, 0.2 M Phosphate buffer pH 3.0, 1 h) was 493 ± 97 µM; in data set [1] (aqueous buffer, 0.2 M Phosphate buffer pH 5.0, 1 h), 490 ± 42 µM; in data set [1] (aqueous buffer, 0.2 M Phosphate buffer pH 6.5, 1 h), 416 ± 48 µM; in data set [1] (aqueous buffer, 0.2 M Phosphate buffer pH 8, 1 h), 412 ± 29 µM; in data set [1] (simulated gastric fluid, 0.1 M HCl pH 1.0, 1 h), 1530 ± 129 µM. Also, the solubility at 3 h is 492 ± 115 µM in data set [1] (aqueous buffer, 0.2 M Phosphate buffer pH 3.0, 3 h); 460 ± 54 µM in data set [1] (aqueous buffer, 0.2 M Phosphate buffer pH 5.0, 3 h); 363 ± 86 µM in data set [1] (aqueous buffer, 0.2 M Phosphate buffer pH 6.5, 3 h); 240 ± 35 µM in data set [1] (aqueous buffer, 0.2 M Phosphate buffer pH 8, 3 h); 1100 ± 145 µM in data set [1] (simulated gastric fluid, 0.1 M HCl pH 1.0, 3 h). Further, the solubility at 24 h in data set [1] (aqueous buffer, 0.2 M Phosphate buffer pH 3.0, 24 h) is 11.8 ± 0.9 µM; in data set [1] (aqueous buffer, 0.2 M Phosphate buffer pH 5.0, 24 h), 12.2 ± 0.6 µM; in data set [1] (aqueous buffer, 0.2 M Phosphate buffer pH 6.5, 24 h), 10.1 ± 0.8 µM; in data set [1] (aqueous buffer, 0.2 M Phosphate buffer pH 8, 24 h) it was 8.4 ± 0.7 µM; in data set [1] (simulated gastric fluid, 0.1 M HCl pH 1.0, 24 h) it was 58.4 ± 1.2 µM. The “solid state chemical and physical stability” value in data set [2] (25° C./desiccated, 25° C./60% RH, 40° C./75% RH, after 4, 8 and 12 weeks) is on record as “no significant chemical or physical changes were observed”; in data set [2] (stressed 60° C./75% RH condition, 4, 8 and 12 weeks) it was “some potential chemical degradation”. The “Solubility” value in data set [3] (4-methylbenzenesulfonate) is 1200 µg/mL. The bioavailability in data set [4] (gelatine capsule, dose equivalent to 1.0 mg/kg compound (I) free base) was ~38%. Besides, the humidity uptake result in data set [5] is given as “around 0.2%”. The “dissolved within 30 minutes” value in data set [6] is on record as < 65%.

Turning to `Cc1c(-c2ccnn2C)cc(C(=O)NCc2ccc(S(C)(=O)=O)cn2)c(=O)n1-c1cccc(C(F)(F)F)c1` [compound (I), 6-methyl-5-(1-methyl-1H-pyrazol-5-yl)-N-{[5-(methylsulfonyl)pyridin-2-yl]methyl}-2-oxo-1-[3-(trifluoromethyl)phenyl]-1,2-dihydropyridine-3-carboxamide], the “Solubility” value in data set [3] (listed as Compound (I) free base) was 40 µg/mL. Moreover, the bioavailability in data set [4] (aqueous suspension of 0.8 mg/kg crystalline free base (1.2% w/w Avicel, 0.1% w/w Polysorbate 80)) was ~12%. For the same molecule, the IC50 in data set [7] was determined as 12 nM.
